Measurements published in publication PMC7836013, “Characterization of Formononetin Sulfonation in SULT1A3 Overexpressing HKE293 Cells: Involvement of Multidrug Resistance-Associated Protein 4 in Excretion of Sulfate” (Frontiers in Pharmacology, 2021).
Counter-ions that a name gives are not always drawn. One block for each compound: values may come before it.

Assays:
MRP4 [1] = biological target: T1, MRP4 (Homo sapiens, UniProt O15439); test: Effect of shRNA-mediated MRP4 knockdown on formononetin disposition in HEK-SULT1A3 cells; type: cell-based; settings: shMRP4 vs scramble, formononetin 2.5 and 10 μM
T1 construct: MRP4 was the only expressed MRPs family transporter in HEK-SULT1A3 cells; endogenous in cells; host or cells: HEK-SULT1A3 cells (HEK293 stably expressing SULT1A3)
T1 sequence (O15439 1-1325): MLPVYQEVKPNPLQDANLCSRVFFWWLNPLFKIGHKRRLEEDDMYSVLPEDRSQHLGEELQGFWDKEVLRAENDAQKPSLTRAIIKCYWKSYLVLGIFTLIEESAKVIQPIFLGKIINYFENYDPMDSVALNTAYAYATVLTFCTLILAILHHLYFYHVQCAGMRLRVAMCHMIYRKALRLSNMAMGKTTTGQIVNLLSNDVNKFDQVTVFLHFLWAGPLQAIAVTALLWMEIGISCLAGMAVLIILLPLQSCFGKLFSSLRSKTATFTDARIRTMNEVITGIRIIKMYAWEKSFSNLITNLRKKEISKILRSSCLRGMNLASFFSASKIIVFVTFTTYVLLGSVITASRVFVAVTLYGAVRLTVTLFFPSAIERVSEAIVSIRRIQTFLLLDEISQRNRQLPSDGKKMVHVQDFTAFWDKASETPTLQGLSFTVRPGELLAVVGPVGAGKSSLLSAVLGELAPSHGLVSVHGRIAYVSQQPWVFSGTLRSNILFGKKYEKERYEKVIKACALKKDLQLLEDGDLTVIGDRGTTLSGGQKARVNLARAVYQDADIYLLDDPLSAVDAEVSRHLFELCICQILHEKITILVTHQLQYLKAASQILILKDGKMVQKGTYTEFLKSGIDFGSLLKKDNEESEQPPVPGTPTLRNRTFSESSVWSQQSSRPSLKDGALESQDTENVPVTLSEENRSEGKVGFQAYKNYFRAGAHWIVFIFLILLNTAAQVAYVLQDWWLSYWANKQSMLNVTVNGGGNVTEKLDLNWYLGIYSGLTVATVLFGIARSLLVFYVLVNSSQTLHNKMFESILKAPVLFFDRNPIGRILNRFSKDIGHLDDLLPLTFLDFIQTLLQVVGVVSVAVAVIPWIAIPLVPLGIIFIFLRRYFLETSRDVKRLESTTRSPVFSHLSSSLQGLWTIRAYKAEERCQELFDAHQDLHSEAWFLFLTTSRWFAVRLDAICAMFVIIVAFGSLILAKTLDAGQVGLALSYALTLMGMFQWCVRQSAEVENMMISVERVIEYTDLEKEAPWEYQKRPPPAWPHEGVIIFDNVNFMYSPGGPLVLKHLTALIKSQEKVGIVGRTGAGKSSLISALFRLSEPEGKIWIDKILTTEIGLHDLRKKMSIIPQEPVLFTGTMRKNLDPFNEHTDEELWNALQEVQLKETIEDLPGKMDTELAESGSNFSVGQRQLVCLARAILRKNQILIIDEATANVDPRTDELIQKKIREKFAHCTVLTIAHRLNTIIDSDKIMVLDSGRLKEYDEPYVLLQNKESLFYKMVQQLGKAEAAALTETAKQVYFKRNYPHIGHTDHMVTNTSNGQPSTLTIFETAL
Description: The sulfate excretion experiments were conducted using HEK-SULT1A3 cells model. In brief, HEK-SULT1A3 cells were washed with Hank's Balanced Salt Solution (HBSS) buffer (37°C, pH = 7.2) for three times. Then the cells were incubated with 2 ml HBSS buffer containing different concentrations of formononetin (final concentrations of 2.5 μM or 10 μM) at 37°C. 200 μL of incubation medium was sampled from each well at various times (0.5, 1.0, 1.5, and 2.0 h). Meanwhile, 200 μL of dosing solution was added immediately. The extracted samples were mixed with 100 μL ice-cold acetonitrile and vortexed for 1 min. The supernatant after centrifugation (15,000 g; 15 min) was injected into HPLC for analysis. After the last samples were taken, cells were collected into 400 μL ice-cold MeOH:H2O (1:1, v/v) and processed to measure the intracellular amount of formononetin sulfate. The excretion rate (ER) of intracellular sulfate was calculated exactly as described in our publications (Liu et al., 2018). The apparent efflux clearance (CLef,app) was derived as the excretion rate divided by the intracellular concentration of sulfate (Ci). Ci was determined by dividing intracellular amount of sulfate at 2 h by intracellular volume. The intracellular volume of HEK293 cells was measured using sulfanilamide as described ([Zhou et al., 2015]). […] Further, the fraction of dose metabolized (fmet), an indicator of the extent of drug sulfonation, was calculated according to Eq. 2. fmet=excreted sulfate+intracellular sulfate/total dosed aglycone (2) The cells were collected and lysed in RIPA Lysis Buffer (Beyotime, Shanghai) in advance. After quantified using BCA protein assay kit (Thermo Scientific, Waltham, Massachusetts), the cells samples or individual human intestine S9 fractions were analyzed by sodium dodecyl sulfate polyacrylamide gel electrophoresis (10% acrylamide gels) and transferred to polyvinylidene fluoride membranes ([…], Millipore, Bedford, MA). […] And then the protein bands were scanned in grayscale and subjected to semiquantitative analysis using Quantity One software.

MRP4 [2] = biological target: T1, MRP4; test: Effect of MK-571 on formononetin sulfate excretion in HEK-SULT1A3 cells; type: cell-based
Description: The sulfate excretion experiments were conducted using HEK-SULT1A3 cells model. In brief, HEK-SULT1A3 cells were washed with Hank's Balanced Salt Solution (HBSS) buffer (37°C, pH = 7.2) for three times. Then the cells were incubated with 2 ml HBSS buffer containing different concentrations of formononetin (final concentrations of 2.5 μM or 10 μM) at 37°C. 200 μL of incubation medium was sampled from each well at various times (0.5, 1.0, 1.5, and 2.0 h). Meanwhile, 200 μL of dosing solution was added immediately. The extracted samples were mixed with 100 μL ice-cold acetonitrile and vortexed for 1 min. The supernatant after centrifugation (15,000 g; 15 min) was injected into HPLC for analysis. After the last samples were taken, cells were collected into 400 μL ice-cold MeOH:H2O (1:1, v/v) and processed to measure the intracellular amount of formononetin sulfate. The excretion rate (ER) of intracellular sulfate was calculated exactly as described in our publications (Liu et al., 2018). The apparent efflux clearance (CLef,app) was derived as the excretion rate divided by the intracellular concentration of sulfate (Ci). Ci was determined by dividing intracellular amount of sulfate at 2 h by intracellular volume. The intracellular volume of HEK293 cells was measured using sulfanilamide as described ([Zhou et al., 2015]).

HEK-SULT1A3 cell lysate [3] = biological target: T2, HEK-SULT1A3 cell lysate (Homo sapiens, UniProt P0DMM9); test: Effect of chemical inhibitors on formononetin sulfonation in HEK-SULT1A3 cell lysate; type: in vitro ADME; settings: inhibitor 5–20 μM, formononetin 2.5 and 10 μM, p > 0.05
T2 construct: expressed in transfected cells; cell lysate used

HEK-SULT1A3 cell lysate [4] = biological target: T2, HEK-SULT1A3 cell lysate; test: Formononetin sulfonation enzyme kinetics in HEK-SULT1A3 cell lysate; type: in vitro ADME; settings: Michaelis-Menten, mean ± SD (n = 3)
Description: Enzyme kinetic of formononetin incubated with recombinant human SULT1A3 enzyme (rSULT1A3) was evaluated. The reaction was activated after the coenzyme PAPS (which provides sulfonate group to the substrates) was added. The incubation reaction was conducted in 200 μL potassium phosphate buffer (50 mM, pH 7.4) at 37°C, containing SULT1A3 enzyme (0.1 mg/ml), formononetin (0.16–40 μM), and PAPS (a final concentration of 0.10 mM). After incubation for 120 min, the reaction was terminated by adding 100 μL ice-cold acetonitrile. Then the samples were vortexed and centrifuged at 15,000 g for 15 min. The supernatant was analyzed by HPLC for sulfate quantification. All incubations were performed in triplicate. Preliminary experiments were performed to ensure that the rates of sulfation were determined under linear conditions with respect to incubation time and protein concentration.
The sulfonation rates of formononetin at different concentrations were determined according to the sulfonation assay protocol. […] The intrinsic clearance (CLint) was calculated by Vmax/Km.
Quantification of formononetin sulfate was performed using Agilent 1,260 Infinity II HPLC system with a ZORBAX SB-C18 column (4.6 × 250 mm, 5 μm; Agilent). […] The samples were analyzed using a gradient of ammonium acetate (2.5 mM) in water (mobile phase A) vs. acetonitrile (mobile phase B) at a flow rate of 1.0 ml/min. […]

[5] = set-up: method as in Singh and Wahajuddin, 2011; settings: ref Singh and Wahajuddin, 2011; cited from earlier work
[6] = MK-571 5–20 μM, formononetin 2.5 μM, p < 0.001
[7] = MK-571 5–20 μM, formononetin 10 μM, p < 0.001

T2 sequence (P0DMM9 whole entry): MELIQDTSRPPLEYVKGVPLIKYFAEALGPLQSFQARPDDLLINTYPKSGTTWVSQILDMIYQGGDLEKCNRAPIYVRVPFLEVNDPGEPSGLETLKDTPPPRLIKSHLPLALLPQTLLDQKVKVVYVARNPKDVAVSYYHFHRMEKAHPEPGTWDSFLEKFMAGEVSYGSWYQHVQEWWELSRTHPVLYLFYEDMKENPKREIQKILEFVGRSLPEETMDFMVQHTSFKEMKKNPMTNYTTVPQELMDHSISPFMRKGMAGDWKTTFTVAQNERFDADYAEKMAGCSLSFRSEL

Decrease in CLef,app of F-O-S on MRP4 knockdown (MRP4 [1]; p < 0.01): > 50.6%
Reduction in sulfate excretion rates on MRP4 knockdown (MRP4 [1]; p < 0.01): > 32.8%
Elevation in intracellular amounts of F-O-S on MRP4 knockdown (MRP4 [1]; p < 0.05): > 127.4%
SMILES: COc1ccc(-c2coc3cc(OS(=O)(=O)O)ccc3c2=O)cc1 [F-O-S, formononetin sulfate]

Decrease of CLef,app of F-O-S (MRP4 [2]; [6]): 85.3%–98.0%
Reduction in excretion of F-O-S (MRP4 [2]; [6]): 79.1%–94.6%
Decrease of excretion rates of F-O-S (MRP4 [2]; [7]): 79.8%–95.7%
Increase of intracellular level of F-O-S (MRP4 [2]; [7]): 160.6%–188.8%
Reduction of CLef,app of F-O-S (MRP4 [2]; [7]): 87.3%–97.7%
Suppression of excretion of formononetin sulfate (MRP4 [2]; MK-571 at 20 μM): > 94%
Effect of inhibitor on formononetin sulfonation (generation of F-O-S) (HEK-SULT1A3 cell lysate [3]): did not alter
SMILES: CN(C)C(=O)CCSC(SCCC(=O)O)c1cccc(/C=C/c2ccc3ccc(Cl)cc3n2)c1 (stereo not drawn) [MK-571]

Vmax of formononetin sulfonation (HEK-SULT1A3 cell lysate [4]): 13.94 ± 0.83 pmol/min/mg
SMILES: COc1ccc(-c2coc3cc(O)ccc3c2=O)cc1 [formononetin, Formononetin]
Bioavailability of unchanged formononetin [5]: approximately 3%
